According to PMC8268740, “Evaluation of Firefly and Renilla Luciferase Inhibition in Reporter-Gene Assays: A Case of Isoflavonoids” (International Journal of Molecular Sciences, 2021):
“And” between values parts separate entries of the source, which are not always exact repeats. Identical values can stand only once. “Also recorded” adds a separate entry of the source. Like-named read-outs stand apart in the source and are kept apart here.

Legend:
[1] = biological target: T1, firefly luciferase (FLuc) (Photinus pyralis, UniProt P08659); assay: Cell-lysate (AR-EcoScreen) in vitro firefly luciferase inhibition assay; assay type: biochemical; conditions: for IC50 / FLuc inhibition (result in words): AR-EcoScreen cell lysate; for inhibition at 1 µM / inhibition at 10 µM / inhibition at 100 µM: read-out: inhibition of FLuc; for FLuc inhibition (result in words): screened at 1, 10, 100 µM
T1 construct: host or cells: AR-EcoScreen (Chinese hamster ovary derived), lysate after dihydrotestosterone induction
Experimental: (§1) Preparation of cell lysates for use in the luciferase inhibition assays was through seeding of 4–7 ×10^6 cells into a 150 cm^2 growth flask (an equivalent surface density to that indicated in OECD TG 458 [10]) for 24 h at 37 °C under 5% CO2. Upon incubation, dihydrotestosterone (Sigma-Aldrich, St. Louis, MO, USA) diluted in DMSO was added at 10 nM final concentration. This was followed by another 24-h incubation, removal of medium, and addition of 9.4 mL reporter lysis buffer (Promega, Madison, WI, USA). The growth flask was then stored at −80 °C until use.
The cell lysate was thawed at room temperature. Stock solutions of the isoflavonoids and positive controls were dissolved in DMSO and 10-fold serially diluted in the cell lysate to the final concentration with 1% DMSO. Twenty microliters of each isoflavonoid in the cell lysate were transferred to 96-well plates in triplicate and incubated for 30 min at room temperature. Then, 30 µL Luciferase Assay Reagent II (contained in the Dual-Luciferase Reporter Assay System; Promega, Madison, WI, USA) was added to each well, and the FLuc luminescence was measured using a microplate reader (Synergy 4 hybrid; BioTek, Winooski, VT, USA). The addition of 30 µL of Stop & Glo Reagent (contained in the Dual-Luciferase Reporter Assay System) followed, and the RLuc luminescence was recorded using the microplate reader (Synergy 4 hybrid; BioTek, Winooski, VT, USA).
The data from the in vitro luciferase inhibition assays in the AR-EcoScreen cell lysate were processed by first subtracting the background value (i.e., reporter lysis buffer alone) and then normalization to the vehicle control (1% DMSO), and are expressed as means ± standard deviation of three independent repeats carried out as technical triplicates. […] Statistical significance as compared to the vehicle control, considered: *, p ≤ 0.05; **, p ≤ 0.01; and ****, p ≤ 0.0001, using one-way ANOVA, followed by post-hoc Dunnett’s tests.

[2] = biological target: T2, Renilla luciferase (RLuc) (Renilla reniformis, UniProt P27652); assay: Cell-lysate (AR-EcoScreen) in vitro Renilla luciferase inhibition assay; assay type: biochemical
T2 construct: host or cells: AR-EcoScreen (Chinese hamster ovary derived), lysate
T2 sequence (P27652 1-311): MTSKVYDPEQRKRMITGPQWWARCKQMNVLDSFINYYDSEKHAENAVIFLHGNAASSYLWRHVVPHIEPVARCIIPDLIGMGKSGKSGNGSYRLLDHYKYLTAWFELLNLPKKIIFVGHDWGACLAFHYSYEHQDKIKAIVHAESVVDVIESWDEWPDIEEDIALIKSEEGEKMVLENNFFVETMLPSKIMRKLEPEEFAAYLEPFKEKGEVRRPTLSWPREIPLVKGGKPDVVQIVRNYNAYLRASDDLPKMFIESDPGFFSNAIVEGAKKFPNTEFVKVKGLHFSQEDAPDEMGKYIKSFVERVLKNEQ
Experimental: as §1
The cell lysate was thawed at room temperature. Stock solutions of the isoflavonoids and positive controls were dissolved in DMSO and 10-fold serially diluted in the cell lysate to the final concentration with 1% DMSO. […] Then, 30 µL Luciferase Assay Reagent II (contained in the Dual-Luciferase Reporter Assay System; Promega, Madison, WI, USA) was added to each well, and the FLuc luminescence was measured using a microplate reader (Synergy 4 hybrid; BioTek, Winooski, VT, USA). The addition of 30 µL of Stop & Glo Reagent (contained in the Dual-Luciferase Reporter Assay System) followed, and the RLuc luminescence was recorded using the microplate reader (Synergy 4 hybrid; BioTek, Winooski, VT, USA). […]

RLuc = conditions: read-out: IC50 RLuc inhibition; in the presence of 10 µM coelenterazine; cited from earlier work
isolated FLuc = conditions: cited from earlier work
[3] = read-out: IC50 firefly luciferase inhibition
[4] = IC50 firefly luciferase inhibition

T1 sequence (P08659 whole entry): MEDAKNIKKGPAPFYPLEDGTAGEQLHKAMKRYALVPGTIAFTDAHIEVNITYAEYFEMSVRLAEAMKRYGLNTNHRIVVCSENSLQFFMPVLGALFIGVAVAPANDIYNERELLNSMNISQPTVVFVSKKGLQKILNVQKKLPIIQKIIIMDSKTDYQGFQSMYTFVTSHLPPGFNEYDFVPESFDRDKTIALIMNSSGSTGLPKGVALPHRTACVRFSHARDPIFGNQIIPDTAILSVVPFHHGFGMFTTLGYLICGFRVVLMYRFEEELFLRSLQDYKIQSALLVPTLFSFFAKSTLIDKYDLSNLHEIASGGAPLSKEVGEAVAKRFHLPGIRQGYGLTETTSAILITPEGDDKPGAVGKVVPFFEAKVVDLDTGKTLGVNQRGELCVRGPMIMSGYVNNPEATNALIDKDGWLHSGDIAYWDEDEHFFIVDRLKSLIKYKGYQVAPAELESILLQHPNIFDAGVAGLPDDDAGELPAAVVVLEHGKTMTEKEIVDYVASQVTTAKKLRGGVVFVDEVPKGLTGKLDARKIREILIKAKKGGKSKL

COc1ccc(-c2coc3cc(O)cc(O)c3c2=O)cc1 [Biochanin A, biochanin A]
IC50 [1, 3]: 0.636 µM and 0.64 µM | inhibition at 1 µM [1]: 62.4%

COc1ccc(-c2coc3cc(O)ccc3c2=O)cc1O [Calycosin]
IC50 [1, 4]: 4.96 µM | inhibition at 10 µM [1]: 66.2%

O=c1c(-c2ccc(O)cc2)coc2cc(O)ccc12 [Daidzein]
IC50 [1, 4]: 51.4 µM | inhibition at 100 µM [1]: 60.9%

O=c1c(-c2ccc(O)cc2)coc2cc(O[C@@H]3O[C@H](CO)[C@@H](O)[C@H](O)[C@H]3O)ccc12 [Daidzin, daidzin]
FLuc inhibition (result in words) [1]: inactive; also recorded: did not show inhibition of FLuc at all

COc1ccc(-c2coc3cc(O)ccc3c2=O)cc1 [Formononetin, formononetin]
IC50 [1, 3]: 3.88 µM | inhibition at 1 µM [1]: 32.4%

O=c1c(-c2ccc(O)cc2)coc2cc(O)cc(O)c12 [Genistein, genistein]
IC50 [1, 4]: 36.9 µM | inhibition at 100 µM [1]: 71.2%

O=c1c(-c2ccc(O)cc2)coc2cc(O[C@@H]3O[C@H](CO)[C@@H](O)[C@H](O)[C@H]3O)cc(O)c12 [Genistin, genistin]
FLuc inhibition (result in words) [1]: inactive | FLuc inhibition (result in words) ([1]; listed as genistin): did not show inhibition of FLuc at all

COc1cc2c(=O)c(-c3ccc(O)cc3)coc2cc1O [Glycitein]
IC50 [1, 4]: 26.4 µM | inhibition at 10 µM [1]: 30.1%

COc1cc2c(=O)c(-c3ccc(O)cc3)coc2cc1O[C@@H]1O[C@H](CO)[C@@H](O)[C@H](O)[C@H]1O [Glycitin, glycitin]
FLuc inhibition (result in words) [1]: inactive; also recorded: did not show inhibition of FLuc at all

O=S(=O)(NCCNC/C=C/c1ccc(Br)cc1)c1cccc2cnccc12 [H-89]
IC50 [2]: 338 µM | IC50 (RLuc): 10 µM

COc1cc(O)c2c(=O)c(-c3ccc(O)cc3)coc2c1 [Prunetin, prunetin]
IC50 [1, 4]: 16.3 µM | inhibition at 10 µM [1]: 40.7%

Oc1ccc(/C=C/c2cc(O)cc(O)c2)cc1 [Resveratrol, resveratrol]
IC50 (isolated FLuc): 2 µM

Oc1ccc([C@H]2COc3cc(O)ccc3C2)cc1 [S-Equol, S-equol]
FLuc inhibition (result in words) [1]: inactive; also recorded: did not show inhibition of FLuc at all
